The text below walks through data of ChEMBL document CHEMBL1158911, “Isolation and Structure Determination of Inostamycin, a Novel Inhibitor of Phosphatidylinositol Turnover” (J Nat Prod, 1990).

The assay concerns A-431. Nature of the assay: Inhibition of EGF-induced [3H]inositol incorporation in to phosphatidylinositol in human A431 cells after 60 mins by liquid scintillation spectrophotometry. Type of assay: functional, cell-based.

Structures are written as SMILES. Converted amounts (≈) assume the structure as drawn. The source made the active and inactive calls. The calls are words filed in the database; no cut-off is given here.

For the compound `CCC[C@H](O)[C@@]1(CC)C[C@@H](C)[C@](O)([C@]2(C)C[C@H](C)[C@@H]([C@@H](CC)C(=O)[C@@H](C)[C@@H](O)[C@H](C)[C@H]3O[C@@](O)([C@H](CC)C(=O)O)[C@@H](C)[C@H](O)[C@H]3CC)O2)O1` [INOSTAMYCIN], half-maximal inhibition (IC50) required 0.5 µg/mL (≈ 0.713 µM).
Take `CC[C@@]1([C@@H]2O[C@@H]([C@H]3O[C@@](O)(CO)[C@H](C)C[C@@H]3C)C[C@@H]2C)CC[C@H]([C@]2(C)CC[C@]3(C[C@H](O)[C@@H](C)[C@@H]([C@@H](C)[C@@H](OC)[C@H](C)C(=O)O)O3)O2)O1`: the result was inactive.
With `CC[C@@H](C(=O)[C@@H](C)[C@@H](O)[C@@H](C)[C@H]1O[C@@H](CC(=O)OO)[C@H](C)C[C@@H]1C)[C@H]1O[C@](C)([C@]2(O)O[C@](CC)([C@@H](O)CC)C[C@H]2C)C[C@@H]1C`, the result was Active.
